Earlier results on 1 compound are cited in patent publication US20150174190A1, “Formulation Against General, Physical, And/Or Mental Fatigue” (priority 2013, published 2015).

The series deals with patients that suffered from fatigue.

With `CC(C)[C@H](N)C(=O)OCC(CO)OCn1cnc2c(=O)nc(N)[nH]c21` (stereo partly shown) [Valganciclovir], the “Effect on physical and cognitive performance” value is “improved physical and cognitive performance”.
